The source of these data is patent publication US20260000596A1, “SEMI-SYNTHETIC RHAMNOLIPIDS” (The Procter & Gamble Company, priority 2024, published 2026).

Holding throughout (type): cell-based
Test [1] has as its system Escherichia coli ATCC 8739. The test can be described thus: Minimal Kill Concentration Assay (MKCA), E. coli. The note with it: for MBC: Escherichia coli, ATCC8739, 20 min, read-out: E. coli MKC (ppm). The procedure: (§1) The MKC assay is a 96 well plate method to determine the minimum concentration of a test material or composition needed to kill Gram-negative and Gram-positive bacteria (Escherichia coli ATCC 8739 and Staphylococcus aureus ATCC 6538, respectively). The bacterial suspensions are prepared from 10× freezer stocks with 15% glycerol. The freezer stocks are centrifuged at 13,000×g (Eppendorf Centrifuge […] No. 541705483) for 1 minute. The supernatant is removed, and the cell pellet is resuspended in 1 mL saline (Sodium chloride solution 0.9%, Cytiva REF: Z1376), and then transferred to 9 mL saline. The target cfu/ml is 10^8, which is confirmed via serial diluting and plating on TSA plates (Tryptic Soy Agar-Sigma-Aldrich Cat #22091). Then 50 μL (25 μL if low on test materials) of bacteria is added to each well of a 96 well 0.5 mL V-Bottom plate (Greiner bio-one REF: 786201) to make a bacteria plate, one separate plate for each bacterium. The dilutions of the test compounds are prepared in a separate 96 well plate. The test compounds are tested at six dilutions in duplicates or with no replication diluted across the entire plate. The test compounds are prepared in Dimethyl Sulfoxide (Sigma Aldrich GR ACS Cat. No: MX1458-6) or sterile water at 2× the intended test concentration, and then serially diluted in the appropriate vehicle 1:2 across the plate using a multichannel. 50 μL (25 μL if low on test materials) from the test compound plate is added to each well in the bacteria plate all at once using an Integra VIAFLOW 96 channel pipette (Model: VIAFLO 96) and the Integra 300 μL Head (Part No. 6103). With addition of the 2× compounds bacteria plate, the compounds are diluted to a 1× test concentration. The addition of the test compounds to the bacteria wells starts the 20-minute contact time. The plates are mixed well using a Mix-Mate (Eppendorf SE). After 20 minutes, 1 μL from each well of the bacteria plate is transferred to premade Tryptic Soy Agar (TSA) plates (OmniTray Cell Culture Treated w/Lid Sterile, Cat. No: 165218) for spot plating using the Integra VIAFLOW 96 with the Integra 12.5 μL head (Part No. 6101). Then 4 μL from each well of the bacteria/compound plate is transferred to another 96 well plate containing 36 μL of neutralizer broth Modified Letheen Broth (BD Difco Letheen Broth, Modified REF 263010). The contact time is stopped at 20 minutes once the compound plate is neutralized. The plates are mixed well using a Mix-Mate and then 1 μL of the neutralizer+sample mix is transferred to a TSA OmniTray plate using the Integra VIAFLOW and Integra 12.5 μL head. The TSA spot plates are then incubated overnight for 20 hours at 37° C. in an Incubator. This process is done for both bacteria species. After overnight incubation, the plates are removed from the incubator and the results recorded by observing which dilutions had bacterial kill/growth. The last dilution that had kill for both replicates is recorded as the MKC. A positive control of Benzalkonium chloride (Sigma Aldrich Cat. No.: 12060-5G) and vehicle controls are always included in the test.

The subject of test [2] is Staphylococcus aureus ATCC 6538. The test can be described thus: Minimal Kill Concentration Assay (MKCA), S. aureus. The note with it: for minimal kill concentration (20-minute contact) / S. aureus MKC (ppm): solvent DMSO, 20-minute contact time. The procedure: as §1
For test [3], the system named is Staphylococcus aureus ATCC #6538. The test can be described thus: Minimum Inhibitory Concentration (MIC) Assay with Minimum Biocidal Concentration (MBC). The note with it: solvent DMSO; for MBC / MIC: Staphylococcus aureus, ATCC6538, 24 h; for MBC: read-out: S. aureus MBC (ppm); for MIC: read-out: S. aureus MIC (ppm). How it is done: The Minimum Inhibitory Concentration (MIC) Assay is a 96-well high throughput method that determines the minimum concentration of an active required to inhibit the growth of microorganisms. Organism preparation: Compounds were evaluated against the following microorganisms: Staphylococcus aureus ATCC #6538 (American Type Culture Collection, Manassas, Virginia, USA). To prepare bacteria solutions, bacteria were streaked on Tryptic Soy Agar (TSA) and incubated at 30-35° C. for 18-24 hrs. Confluent growth was transferred to saline (0.85% NaCl) and turbidometrically adjusted to a target concentration of 10^7-10^8 CFU/ml. This inoculum solution was further diluted 1:1000 in Tryptic Soy Broth (pH 7) for assay use. Assay: Two-fold serial dilutions were prepared in Dimethylsulfoxide (DMSO, Thermo Scientific Pierce DMSO, Sequencing Grade) or sterile water for each test sample. In a sterile 96-well plate, each dilution was further diluted in broth inoculum such that each well contained 5% dilution and 95% broth inoculum. Bacteria plates were incubated on an orbital shaker (Heidolph Titramax 1000 Vibrating Platform Shaker, 200-300 rpm) for 24±2 hrs at 35° C. After incubation, the optical density (OD) of each well was measured in a spectrophotometer (Victor Nivo Multimode Plate Reader) at 600 nm. […] To determine the Minimum Biocidal Concentration (MBC), 2 ul from each well was pipetted onto neutralizing agar (Modified Letheen Agar with Tween) and incubated for 24 hrs at 30-35° C. The MBC was determined as the most dilute concentration with no visible growth.

The mark [4] stands for this setting: Table 4, derivatized rhamnolipids, solvent DMSO, 20-minute contact time.
Where [5] appears, read: Staphylococcus aureus, ATCC6538, 20 min, Table 4, derivatized rhamnolipids, read-out: S. aureus MKC (ppm).
Where [6] appears, read: Table 4, derivatized rhamnolipids.

Values after ≈ are worked out from the molar mass of the structure shown. Like-named read-outs stand apart in the source and are kept apart here. A value given as a limit tells only on which side of the number the result lay.

Broadly, the MIC is the lowest concentration that inhibits growth of the organism. Consider `CCCCCCCC(CC(=O)NCCO[Si](C)(C)C(C)(C)C)O[C@@H]1O[C@@H](C)[C@H](O)[C@@H](O)[C@H]1O[C@@H]1O[C@@H](C)[C@H](O)[C@@H](O)[C@H]1O` (stereo partly drawn) [N-(2-((tert-butyldimethylsilyl)oxy)ethyl)-3-(((2R,3R,4R,5R,6S)-4,5-dihydroxy-6-methyl-3-(((2S,3R,4R,5R,6S)-3,4,5-trihydroxy-6-methyltetrahydro-2H-pyran-2-yl)oxy)tetrahydro-2H-pyran-2-yl)oxy)decanamide], for which, in test [1] (setting [4]), the MBC is above 6370 µg/mL. Besides, the minimal kill concentration (20-minute contact) in test [2] (setting [5]) is above 6370 µg/mL. Also, in test [3] (Table 5), the MBC was 637 µg/mL (≈ 0.999 mM) and the minimum inhibitory concentration (MIC) was 319 µg/mL (≈ 0.5 mM).
`CCCCCCCC(CC(=O)NC1CCCCC1)O[C@@H]1O[C@@H](C)[C@H](O)[C@@H](O)[C@H]1O[C@@H]1O[C@@H](C)[C@H](O)[C@@H](O)[C@H]1O` (stereo partly drawn) [N-cyclohexyl-3-(((2R,3R,4R,5R,6S)-4,5-dihydroxy-6-methyl-3-(((2S,3R,4R,5R,6S)-3,4,5-trihydroxy-6-methyltetrahydro-2H-pyran-2-yl)oxy)tetrahydro-2H-pyran-2-yl)oxy)decanamide]: the MBC in test [1] (setting [4]) is above 5620 µg/mL. In addition, the minimal kill concentration (20-minute contact) in test [2] (setting [5]) is above 5620 µg/mL. In addition, in test [3] (Table 5), the MBC was above 2250 µg/mL and the MIC is above 2250 µg/mL.
Turning to `CCCCCC(CC(=O)O)OC1O[C@@H](C)[C@H](O)[C@@H](O)[C@H]1O` (stereo partly shown) [Rha1C14], the “E. coli MKC (ppm)” value in test [1] (Table 1.4b, solvent DMSO, 20-minute contact time) came to 781 ppm. In addition, in test [2] (Table 1.4b), the “S. aureus MKC (ppm)” value came to 781 ppm. Further, the “S. aureus MIC (ppm)” value in test [3] (Table 1.5, >=50% inhibition, 24 hrs at 35° C.) is 625 ppm. Besides, in test [3] (Table 1.5, no visible growth), the “S. aureus MBC (ppm)” value is above 10000 ppm.
With `CCCCCCCC(CC(=O)O)O[C@@H]1O[C@@H](C)[C@H](O)[C@@H](O)[C@H]1O[C@@H]1O[C@H](C)C(O)[C@@H](O)[C@H]1O` (stereo partly drawn) [calcium 3-(((2R,3R,4R,5R,6S)-4,5-dihydroxy-6-methyl-3-(((2S,3R,4R,6R)-3,4,5-trihydroxy-6-methyltetrahydro-2H-pyran-2-yl)oxy)tetrahydro-2H-pyran-2-yl)oxy)decanoate], the MBC is above 9390 µg/mL in test [1]; above 9390 µg/mL in test [2] (Staphylococcus aureus, ATCC6538, 20 min, read-out: S. aureus MKC (ppm)); above 4000 µg/mL in test [3] (Table 5). Also, the MIC in test [3] (Table 5) was above 4000 µg/mL.
For the compound `CCCCCCCC(CC(=O)OC)O[C@@H]1O[C@@H](C)[C@H](O)[C@@H](O)[C@H]1O` (stereo partly drawn) [methyl 3-(((2R,3R,4R,5R,6S)-3,4,5-trihydroxy-6-methyltetrahydro-2H-pyran-2-yl)oxy)decanoate], the MBC in test [1] (setting [4]) was above 3490 µg/mL; in test [3] (Table 5), 1400 µg/mL (≈ 4 mM). Moreover, the minimal kill concentration (20-minute contact) in test [2] (setting [5]) is above 3490 µg/mL. For the same compound, the minimum inhibitory concentration (MIC) in test [3] (Table 5) is 1400 µg/mL (≈ 4 mM).
“Methyl 3-(((2R,3R,4R,5R,6S)-4,5-dihydroxy-6-methyl-3-(((2R,3S,4S,5S,6S)-3,4,5-trihydroxy-6-methyltetrahydro-2H-pyran-2-yl)oxy)tetrahydro-2H-pyran-2-yl)oxy)decanoate”: the “E. coli MKC (ppm)” value in test [1] (setting [4]) is reported as above 4945.8 ppm. For the same compound, the “S. aureus MKC (ppm)” value in test [2] (setting [6]) is given as above 4945.8 ppm. Moreover, in test [3] (Table 5), the “S. aureus MBC (ppm)” value stood at 1978.3 ppm and the “S. aureus MIC (ppm)” value worked out at 1978.3 ppm.
With “N-benzyl-3-(((2R,3R,4R,5R,6S)-4,5-dihydroxy-6-methyl-3-(((2R,3S,4S,5S,6S)-3,4,5-trihydroxy-6-methyltetrahydro-2H-pyran-2-yl)oxy)tetrahydro-2H-pyran-2-yl)oxy)decanamide”, in test [1] (setting [4]), the “E. coli MKC (ppm)” value was above 5696.9 ppm. For the same compound, the “S. aureus MKC (ppm)” value in test [2] (setting [6]) is above 5696.9 ppm. For the same compound, in test [3] (Table 5), the “S. aureus MBC (ppm)” value was above 2278.3 ppm and the “S. aureus MIC (ppm)” value amounted to 2278.8 ppm.
